Where two headings read alike, the source gives them in different places.
Experiments:
IMP-1 = IMP-1 (Serratia marcescens, UniProt P52699); assay: biochemical; type: biochemical; conditions: read-out: IMP-1 IC50
Protocol: Enzyme Activity: Determination of IC50
(§2) The Class B enzyme activities were measured in the presence of the test inhibitor in a fluorescence assay against a commercially available substrate consisting of a cephalosporin core linking 7-hydroxycoumarin to fluorescein (CCF2-FA). The enzyme (NDM-1, IMP-1 or VIM-1) and the substrate were diluted in 100 mM KH2PO4 buffer (pH 7) containing 0.005% Tween-20 and 10 μM ZnSO4. […] The test inhibitor was dissolved in dimethylsulfoxide and diluted 1:50 in the assay, resulting in a final concentration range of 20 uM to 0.00063 uM. In a 384-well microplate, the test inhibitor was incubated with the metallo-β-lactamase enzyme and the substrate for 2 hours at 25° C. Fluorescence at 460 nm following excitation at 405 nm was measured. The IC50 value was determined from semi-logarithmic plots of enzyme inhibition versus inhibitor concentration, with a curve generated using a 4-parameter fit.

[1] = test system: Escherichia coli expressing NDM-1 (CLB30016); assay: Antibiotic potentiation activity: synergistic concentration (MITC95) with imipenem, OD600 growth; type: cell-based
In short: (§1)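 Spectrophotometric growth readings were taken following 22–24 h at 35 °C. Before that, organisms in 1.1× CAMHB were mixed with imipenem, used at 4 μg/ml in assay, and test compound.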

[2] = test system: Klebsiella pneumoniae expressing VIM-1 (IHMA599644); assay: as above; type: cell-based
In short: as §1

[3] = test system: Serratia marcescens expressing IMP-1 (CL5741); assay: as above; type: cell-based
In short: as §1

NDM-1 = NDM-1 (Klebsiella pneumoniae, UniProt C7C422); assay: biochemical; type: biochemical; conditions: read-out: NDM-1 IC50
Protocol: Enzyme Activity: Determination of IC50
as §2

VIM-1 = VIM-1 (Pseudomonas aeruginosa (strain ATCC 15692 / DSM 22644 / CIP 104116 / JCM 14847 / LMG 12228 / 1C / PRS 101 / PAO1), UniProt A0A0F7KYQ8); assay: Enzyme activity: determination of IC50, fluorescence assay with CCF2-FA substrate (VIM-1); type: biochemical
[4] = IMP-1 enzyme, CCF2-FA substrate
[5] = (CLB30016, NDM-1), 95% growth inhibition
[6] = Klebsiella pneumoniae IHMA599644 (VIM-1), 95% growth inhibition
[7] = Serratia marcescens CL5741 (IMP-1), 95% growth inhibition
[8] = NDM-1 enzyme, CCF2-FA substrate
[9] = VIM-1 IC50, VIM-1 enzyme, CCF2-FA substrate
[10] = IMP-1 enzyme, CCF2-FA fluorescence assay
[11] = Escherichia coli expressing NDM-1 (CLB30016), 95% growth inhibition
[12] = Klebsiella pneumoniae expressing VIM-1 (IHMA599644), 95% growth inhibition
[13] = Serratia marcescens expressing IMP-1 (CL5741), 95% growth inhibition
[14] = NDM-1 enzyme, CCF2-FA fluorescence assay
[15] = VIM-1 IC50, VIM-1 enzyme, CCF2-FA fluorescence assay
[16] = VIM-1 enzyme, CCF2-FA substrate, read-out: VIM-1 IC50
[17] = VIM-1 enzyme, CCF2-FA fluorescence assay, read-out: VIM-1 IC50
[18] = fluorescence assay with CCF2-FA substrate
[19] = CLB30016 (NDM-1), 95% inhibition of bacterial growth
[20] = IHMA599644 (VIM-1), 95% inhibition of bacterial growth
[21] = CL5741 (IMP-1), 95% inhibition of bacterial growth
[22] = fluorescence assay with CCF2-FA substrate, read-out: VIM-1 IC50

Sequence of NDM-1 (C7C422 whole entry, looked up, species assumed): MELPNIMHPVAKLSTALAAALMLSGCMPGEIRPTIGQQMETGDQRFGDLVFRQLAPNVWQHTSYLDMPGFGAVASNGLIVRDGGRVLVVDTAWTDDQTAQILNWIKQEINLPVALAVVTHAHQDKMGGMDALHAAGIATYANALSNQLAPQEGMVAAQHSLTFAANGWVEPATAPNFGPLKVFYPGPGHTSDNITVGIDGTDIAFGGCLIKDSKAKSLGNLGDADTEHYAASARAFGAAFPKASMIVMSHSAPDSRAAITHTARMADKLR
Sequence of IMP-1 (P52699 whole entry, looked up): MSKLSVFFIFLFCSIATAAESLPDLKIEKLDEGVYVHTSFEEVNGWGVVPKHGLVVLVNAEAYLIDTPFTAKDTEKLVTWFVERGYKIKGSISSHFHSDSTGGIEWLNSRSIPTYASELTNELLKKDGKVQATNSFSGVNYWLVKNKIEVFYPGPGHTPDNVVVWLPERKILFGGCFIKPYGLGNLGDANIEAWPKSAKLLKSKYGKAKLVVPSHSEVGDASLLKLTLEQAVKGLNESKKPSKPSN

With `NS(=O)(=O)c1c(CC[C@H]2CC[C@H](N)CC2)ccc(-c2ccc(C3CNC3)cc2)c1-c1nnn[nH]1` [Example 599, 4-(2-((1r,4s)-4-aminocyclohexyl)ethyl)-4′-(azetidin-3-yl)-2-(1H-tetrazol-5-yl)-[1,1′-biphenyl]-3-sulfonamide] the IC50 (IMP-1; [4]) was 6.43 nM, the “Escherichia coli MITC95” value [1, 5] was 1.563 µM and the “Klebsiella pneumoniae MITC95” value [2, 6] was 3.125 µM. The “Serratia marcescens MITC95” value [3, 7] was 3.125 µM, the IC50 (NDM-1; [8]) was 2.12 nM and the IC50 (VIM-1; [9]) was 5.33 nM.

With `NC(=O)C1CN(Cc2ccc(-c3cccc(S(N)(=O)=O)c3-c3nnn[nH]3)cc2)C1` [Example 362, 1-{[3′-sulfamoyl-2′-(1H-tetrazol-5-yl)biphenyl-4-yl]methyl}azetidine-3-carboxamide] the IC50 (IMP-1; [10]) was 116 nM, the “Escherichia coli MITC95” value [1, 11] was 0.7813 µM and the “Klebsiella pneumoniae MITC95” value [2, 12] was 75 µM. For the same molecule, the “Serratia marcescens MITC95” value [3, 13] was 3.125 µM, the IC50 (NDM-1; [14]) was 11.3 nM and the IC50 (VIM-1; [15]) was 494 nM.

For `NS(=O)(=O)c1c(C(F)(F)F)ccc(-c2cccc3c[n+]([O-])ccc23)c1-c1nn[nH]n1` [Example 516, 5-(3-Sulfamoyl-2-(2H-tetrazol-5-yl)-4-(trifluoromethyl)phenyl)isoquinoline 2-oxide], the IC50 (IMP-1; [4]) was 12.6 nM, the “Escherichia coli MITC95” value [1, 5] was 6.25 µM and the “Klebsiella pneumoniae MITC95” value [2, 6] was 6.25 µM. For the same molecule, the “Serratia marcescens MITC95” value [3, 7] was 0.7813 µM, the IC50 (NDM-1; [8]) was 2.4 nM and the IC50 (VIM-1; [16]) was 0.277 nM.

With `NCCC1CCC(N[C@H]2CC[C@H](c3ccc(C(F)(F)F)c(S(N)(=O)=O)c3-c3nnn[nH]3)CC2)CC1` (stereo partly drawn) [Example 693, 3-(4-{[4-(2-aminoethyl)cyclohexyl]a-mino}cyclohexyl)-2-(1H-tetrazol-5-yl)-6-(trifluoromethyl)benzene sulfonamide] the IC50 (IMP-1; [4]) was 97.8 nM, the “Escherichia coli MITC95” value [1, 5] was 3.125 µM and the “Klebsiella pneumoniae MITC95” value [2, 6] was 12.5 µM. The “Serratia marcescens MITC95” value [3, 7] was 6.25 µM, the IC50 (NDM-1; [8]) was 36.9 nM and the IC50 (VIM-1; [16]) was 11.6 nM.

In the case of `N=C(N)c1nc2c(-c3ccc(C(F)(F)F)c(S(N)(=O)=O)c3-c3nnn[nH]3)cccc2s1` [Example 482, 4-(3-Sulfamoyl-2-(1H-tetrazol-5-yl)-4-(trifluoromethyl)phenyl)benzo[d]thiazole-2-carboximidamide], the IC50 (IMP-1; [10]) is reported as 7.24 nM, the “Escherichia coli MITC95” value [1, 11] is reported as 1.563 µM and the “Klebsiella pneumoniae MITC95” value [2, 12] is reported as 3.125 µM. For the same molecule, the “Serratia marcescens MITC95” value [3, 13] was 3.125 µM, the IC50 (NDM-1; [14]) was 0.889 nM and the IC50 (VIM-1; [17]) was 0.194 nM.

For `CC(O)C1CCN(c2ccnc(S(N)(=O)=O)c2-c2nnn[nH]2)CC1` (stereo not drawn) [Example 244, 4-[4-(1-hydroxyethyl)piperidin-1-yl]-3-(1H-tetrazol-5-yl)pyridine-2-sulfonamide], the IC50 (IMP-1; [10]) was 682 nM, the “Escherichia coli MITC95” value [1, 11] was 1.563 µM and the “Klebsiella pneumoniae MITC95” value [2, 12] was 37.5 µM. For the same molecule, the “Serratia marcescens MITC95” value [3, 13] was 18.75 µM, the IC50 (NDM-1; [14]) was 51.2 nM and the IC50 (VIM-1; [17]) was 125 nM.

In the case of `NCC1CCC(N2CCC(c3ccc(-c4ccc(C(F)(F)F)c(S(N)(=O)=O)c4-c4nnn[nH]4)cc3)CC2)CC1` (stereo not drawn) [Example 787, 4′-{1-[4-(aminomethyl)cyclohexyl]piperidin-4-yl}-2-(1H-tetrazol-5-yl)-4-(trifluoromethyl)biphenyl-3-sulfonamide], the IC50 (IMP-1; [18]) is reported as 1.71 nM, the “Escherichia coli MITC95” value [1, 19] is reported as 1.563 µM and the “Klebsiella pneumoniae MITC95” value [2, 20] is reported as 25 µM. The “Serratia marcescens MITC95” value [3, 21] was 3.125 µM, the IC50 (NDM-1; [18]) was 7.09 nM and the IC50 (VIM-1; [22]) was 8.1 nM.

With `NS(=O)(=O)c1c(C(F)(F)F)ccc(C2CCC3(CCNCC3)CC2)c1-c1nnn[nH]1` [Example 833, 3-(3-azaspiro[5.5]undecan-9-yl)-2-(1H-tetrazol-5-yl)-6-(trifluoromethyl)benzenesulfonamide] the IC50 (IMP-1; [18]) was 4.31 nM, the “Escherichia coli MITC95” value [1, 19] was 1.563 µM and the “Klebsiella pneumoniae MITC95” value [2, 20] was 12.5 µM. The “Serratia marcescens MITC95” value [3, 21] was 3.125 µM, the IC50 (NDM-1; [18]) was 0.74 nM and the IC50 (VIM-1; [22]) was 3.33 nM.

With `Nc1ccc(-c2ccc(C[C@H]3CC[C@H](N)CC3)c(S(N)(=O)=O)c2-c2nnn[nH]2)cn1` [Example 575, 6-(((1r,4r)-4-aminocyclohexyl)methyl)-3-(6-aminopyridin-3-yl)-2-(1H-tetrazol-5-yl)benzenesulfonamide] the IC50 (IMP-1; [4]) was 59.5 nM, the “Escherichia coli MITC95” value [1, 5] was 0.3906 µM and the “Klebsiella pneumoniae MITC95” value [2, 6] was 6.25 µM. The “Serratia marcescens MITC95” value [3, 7] was 3.125 µM, the IC50 (NDM-1; [8]) was 3.15 nM and the IC50 (VIM-1; [16]) was 6.98 nM.

For `NC1CCC(N[C@H]2CC[C@H](c3ccc(C(F)(F)F)c(S(N)(=O)=O)c3-c3nnn[nH]3)CC2)CC1` (stereo partly drawn) [Example 701, 3-{4-[(4-aminocyclohexyl)amino]cyclohexyl}-2-(1H-tetrazol-5-yl)-6-(trifluoromethyl)benzene sulfonamide], the IC50 (IMP-1; [4]) was 62.9 nM, the “Escherichia coli MITC95” value [1, 5] was 0.7813 µM and the “Klebsiella pneumoniae MITC95” value [2, 6] was 6.25 µM. For the same molecule, the “Serratia marcescens MITC95” value [3, 7] was 3.125 µM, the IC50 (NDM-1; [8]) was 15.4 nM and the IC50 (VIM-1; [9]) was 12.7 nM.

For `NC1Cc2ccc(-c3ccc(C(F)(F)F)c(S(N)(=O)=O)c3-c3nn[nH]n3)cc2C1` (stereo not drawn) [Example 442, 3-(2-amino-2,3-dihydro-1H-inden-5-yl)-2-(2H-tetrazol-5-yl)-6-(trifluoromethyl)benzenesulfonamide], the IC50 (IMP-1; [10]) was 16.5 nM, the “Escherichia coli MITC95” value [1, 11] was 1.172 µM and the “Klebsiella pneumoniae MITC95” value [2, 12] was 0.7813 µM. The “Serratia marcescens MITC95” value [3, 13] was 0.5859 µM, the IC50 (NDM-1; [14]) was 11.8 nM and the IC50 (VIM-1; [17]) was 0.268 nM.

For `NC1(CN2CC(c3ccc(-c4ccc(C(F)(F)F)c(S(N)(=O)=O)c4-c4nnn[nH]4)cc3)C2)CC1` [Example 806, 4′-{1-[(1-aminocyclopropyl)methyl]azetidin-3-yl}-2-(1H-tetrazol-5-yl)-4-(trifluoromethyl)biphenyl-3-sulfonamide], the IC50 (IMP-1; [18]) was 7.67 nM, the “Escherichia coli MITC95” value [1, 19] was 6.25 µM and the “Klebsiella pneumoniae MITC95” value [2, 20] was 12.5 µM. For the same molecule, the “Serratia marcescens MITC95” value [3, 21] was 6.25 µM, the IC50 (NDM-1; [18]) was 4.68 nM and the IC50 (VIM-1; [22]) was 5.02 nM.

With `Nc1nc2c(-c3ccc(CCCCCO)c(S(N)(=O)=O)c3-c3nn[nH]n3)cccc2s1` [Example 534, 3-(2-Aminobenzo[d]thiazol-4-yl)-6-(5-hydroxypentyl)-2-(2H-tetrazol-5-yl)benzenesulfonamide] the IC50 (IMP-1; [4]) was 9.53 nM, the “Escherichia coli MITC95” value [1, 5] was 6.25 µM and the “Klebsiella pneumoniae MITC95” value [2, 6] was 12.5 µM. For the same molecule, the “Serratia marcescens MITC95” value [3, 7] was 25 µM, the IC50 (NDM-1; [8]) was 0.444 nM and the IC50 (VIM-1; [16]) was 0.843 nM.

With `NS(=O)(=O)c1c(C(F)(F)F)ccc(C2CCN(C3CCNCC3)CC2)c1-c1nnn[nH]1` [Example 835, 3-[1-(4-piperidyl)-4-piperidyl]-2-(1H-tetrazol-5-yl)-6-(trifluoromethyl)benzenesulfonamide] the IC50 (IMP-1; [18]) was 232 nM, the “Escherichia coli MITC95” value [1, 19] was 3.125 µM and the “Klebsiella pneumoniae MITC95” value [2, 20] was 100 µM. The “Serratia marcescens MITC95” value [3, 21] was 6.25 µM, the IC50 (NDM-1; [18]) was 96 nM and the IC50 (VIM-1; [22]) was 190 nM.

In the case of `N=C(N)NCc1ccc(-c2ccc(CC3CCNCC3)c(S(N)(=O)=O)c2-c2nn[nH]n2)cc1` [Example 594, 4′-(guanidinomethyl)-4-(piperidin-4-ylmethyl)-2-(2H-tetrazol-5-yl)biphenyl-3-sulfonamide], the IC50 (IMP-1; [4]) is reported as 51.7 nM, the “Escherichia coli MITC95” value [1, 5] is reported as 0.7813 µM and the “Klebsiella pneumoniae MITC95” value [2, 6] is reported as 1.563 µM. The “Serratia marcescens MITC95” value [3, 7] was 1.563 µM, the IC50 (NDM-1; [8]) was 13.4 nM and the IC50 (VIM-1; [16]) was 5.41 nM.

For `Nc1nc2ccc(-c3ccc(C(F)(F)F)c(S(N)(=O)=O)c3-c3nnn[nH]3)cc2[nH]1` [Example 552, 3-(2-amino-3H-benzimidazol-5-yl)-2-(1H-tetrazol-5-yl)-6-(trifluoromethyl)benzenesulfonamide], the IC50 (IMP-1; [4]) was 7.2 nM, the “Escherichia coli MITC95” value [1, 5] was 0.3906 µM and the “Klebsiella pneumoniae MITC95” value [2, 6] was 1.563 µM. The “Serratia marcescens MITC95” value [3, 7] was 1.563 µM, the IC50 (NDM-1; [8]) was 1.32 nM and the IC50 (VIM-1; [9]) was 0.262 nM.

With `Nc1ncc(-c2ccc(C(F)(F)F)c(S(N)(=O)=O)c2-c2nnn[nH]2)cn1` [Example 475, 3-(2-aminopyrimidin-5-yl)-2-(1H-tetrazol-5-yl)-6-(trifluoromethyl)benzenesulfonamide] the IC50 (IMP-1; [10]) was 13.7 nM, the “Escherichia coli MITC95” value [1, 11] was 0.7813 µM and the “Klebsiella pneumoniae MITC95” value [2, 12] was 3.125 µM. The “Serratia marcescens MITC95” value [3, 13] was 0.7813 µM, the IC50 (NDM-1; [14]) was 5.13 nM and the IC50 (VIM-1; [15]) was 1.92 nM.

With `NC[C@H]1CC[C@H](c2ccc(CCC3CCNCC3)c(S(N)(=O)=O)c2-c2nnn[nH]2)CC1` [Example 591, 3-((1r,4r)-4-(aminomethyl)cyclohexyl)-6-(2-(piperidin-4-yl)ethyl)-2-(1H-tetrazol-5-yl)benzenesulfonamide] the IC50 (IMP-1; [4]) was 320 nM, the “Escherichia coli MITC95” value [1, 5] was 1.563 µM and the “Klebsiella pneumoniae MITC95” value [2, 6] was 25 µM. For the same molecule, the “Serratia marcescens MITC95” value [3, 7] was 6.25 µM, the IC50 (NDM-1; [8]) was 16 nM and the IC50 (VIM-1; [16]) was 574 nM.

Reference: patent publication US9708336B2, “Metallo-beta-lactamase inhibitors” (priority 2014, dated 2017)
